Measurements from US8796310B2, “Amino-pyridine-containing spleen tyrosine kinase (SYK) inhibitors” (Merck Sharp & Dohme Corp., priority 2011, dated 2014).
Where a name gives a salt, the structure may show the parent alone.

Molecular target: recombinant human GST-Syk (Homo sapiens (Human), UniProt P43405)
Assay: Homogeneous Time-Resolved Fluorescence (HTRF) assay for the recombinant human Syk enzyme
Assay type: biochemical
Conditions: GST-hSyk 5 pM, ATP 25 μM, 10-dose titration 10 μM to 0.508 nM; values below lowest test concentration given as <0.50
Experimental: Biological Assay Homogeneous Time-Resolved Fluorescence (HTRF) Assay for the Recombinant Human Syk Enzyme
A recombinant GST-hSyk fusion protein was used to measure potency of compounds to inhibit human Syk activity. […] Final volume of the reaction was 10 μL. Phosphorylation of the peptide was allowed to proceed for 45′ at rt. To quench the reaction and detect the phosphorylated product, 2 nM of a Europium-anti-phosphotyrosine antibody (Perkin Elmer #AD0161) and 70 nM SA-APC (Perkin-Elmer #CR130-100) were added together in 15 mM Tris pH 7.5, 40 mM EDTA, 0.01% tween 20. Final volume of the quenching solution was 10 μL. The resulting HTRF signal was measured after 30 minutes on a EnVision (Perkin-Elmer) reader using a time-resolved fluorescence protocol.

| IC50 [nM] | Structure (SMILES) |
| --- | --- |
| < 0.5 | Cc1cc(Nc2cc(C(F)(F)F)ccn2)nc(-c2cnc(C3(O)CCCCc4c(C(=O)O)cccc43)s2)c1 (single isomer, unassigned) [Example 15G, (R or S)-5-hydroxy-5-[5-(4-methyl-6-{[4-(trifluoromethyl)pyridin-2-yl]amino}pyridin-2-yl)-1,3-thiazol-2-yl]-6,7,8,9-tetrahydro-5H-benzo[7]annulene-1-carboxylic acid] |
| < 0.5 | Cc1cc(Nc2cc(C(F)(F)F)ccn2)nc(-c2cnc(C3(O)CCCCc4c(C(=O)O)cccc43)s2)c1 (single isomer, unassigned) [Example 15H, (R or S)-5-hydroxy-5-[5-(4-methyl-6-{[4-(trifluoromethyl)pyridin-2-yl]amino}pyridin-2-yl)-1,3-thiazol-2-yl]-6,7,8,9-tetrahydro-5H-benzo[7]annulene-1-carboxylic acid] |
| < 0.5 | Cc1cc(Nc2cc(C(F)F)ccn2)nc(-c2cnc(C3(O)CCCc4cc(C(=O)O)ccc43)s2)c1 (stereo not drawn) [Example 1A, 5-[5-(6-{[4-(difluoromethyl)pyridin-2-yl]amino}-4-methylpyridin-2-yl)-1,3-thiazol-2-yl]-5-hydroxy-5,6,7,8-tetrahydronaphthalene-2-carboxylic acid] |
| < 0.5 | Cc1cc(Nc2cc(N3CCN(CCN)CC3)ccn2)nc(-c2cnc(C3(O)CCCc4cc(C(=O)O)ccc43)s2)c1 (stereo not drawn) [Example 1C, 5-{5-[6-({4-[4-(2-aminoethyl)piperazin-1-yl]pyridin-2-yl}amino)-4-methylpyridin-2-yl]-1,3-thiazol-2-yl}-5-hydroxy-5,6,7,8-tetrahydronaphthalene-2-carboxylic acid] |
| < 0.5 | Cc1cc(Nc2cc(N3CCNCC3)ccn2)nc(-c2cnc(C3(O)CCCc4cc(C(=O)O)ccc43)s2)c1 (stereo not drawn) [Example 1D, 5-hydroxy-5-[5-(4-methyl-6-{[4-(piperazin-1-yl)pyridin-2-yl]amino}pyridin-2-yl)-1,3-thiazol-2-yl]-5,6,7,8-tetrahydronaphthalene-2-carboxylic acid] |
| < 0.5 | Cc1cc(Nc2cc(-n3cc(C)cn3)ccn2)nc(-c2cnc(C3(O)CCCc4cc(C(=O)O)ccc43)s2)c1 (stereo not drawn) [Example 1E, 5-hydroxy-5-[5-(4-methyl-6-{[4-(4-methyl-1H-pyrazol-1-yl)pyridin-2-yl]amino}pyridin-2-yl)-1,3-thiazol-2-yl]-5,6,7,8-tetrahydronaphthalene-2-carboxylic acid] |
| < 0.5 | Cc1cc(Nc2cc(-n3cccn3)ccn2)nc(-c2cnc(C3(O)CCCc4cc(C(=O)O)ccc43)s2)c1 (stereo not drawn) [Example 1F, 5-hydroxy-5-[5-(4-methyl-6-{[4-(1H-pyrazol-1-yl)pyridin-2-yl]amino}pyridin-2-yl)-1,3-thiazol-2-yl]-5,6,7,8-tetrahydronaphthalene-2-carboxylic acid] |
| < 0.5 | Cc1ccnc(Nc2cc(C)cc(-c3cnc(C4(O)CCCc5cc(C(=O)O)ccc54)s3)n2)c1 (stereo not drawn) [Example 1H, 5-hydroxy-5-(5-{4-methyl-6-[(4-methylpyridin-2-yl)amino]pyridin-2-yl}-1,3-thiazol-2-yl)-5,6,7,8-tetrahydronaphthalene-2-carboxylic acid] |
| < 0.5 | Cc1cc(Nc2cc(-n3ccc(C)n3)ccn2)nc(-c2cnc(C3(O)CCCc4cc(C(=O)O)ccc43)s2)c1 (stereo not drawn) [Example 1J, 5-hydroxy-5-[5-(4-methyl-6-{[4-(3-methyl-1H-pyrazol-1-yl)pyridin-2-yl]amino}pyridin-2-yl)-1,3-thiazol-2-yl]-5,6,7,8-tetrahydronaphthalene-2-carboxylic acid] |
| < 0.5 | Cc1cc(Nc2cc(C3CCC3)ccn2)nc(-c2cnc(C3(O)CCCc4cc(C(=O)O)ccc43)s2)c1 (stereo not drawn) [Example 1K, 5-(5-{6-[(4-cyclobutylpyridin-2-yl)amino]-4-methylpyridin-2-yl}-1,3-thiazol-2-yl)-5-hydroxy-5,6,7,8-tetrahydronaphthalene-2-carboxylic acid] |
| < 0.5 | CCCc1ccnc(Nc2cc(C)cc(-c3cnc(C4(O)CCCc5cc(C(=O)O)ccc54)s3)n2)c1 (stereo not drawn) [Example 1M, 5-hydroxy-5-(5-{4-methyl-6-[(4-propylpyridin-2-yl)amino]pyridin-2-yl}-1,3-thiazol-2-yl)-5,6,7,8-tetrahydronaphthalene-2-carboxylic acid] |
| < 0.5 | CCOc1ccnc(Nc2cc(C)cc(-c3cnc(C4(O)CCCc5cc(C(=O)O)ccc54)s3)n2)c1 (stereo not drawn) [Example 1N, 5-(5-{6-[(4-ethoxypyridin-2-yl)amino]-4-methylpyridin-2-yl}-1,3-thiazol-2-yl)-5-hydroxy-5,6,7,8-tetrahydronaphthalene-2-carboxylic acid] |
| < 0.5 | CCc1ccnc(Nc2cc(C)cc(-c3cnc(C4(O)CCCc5cc(C(=O)O)ccc54)s3)n2)c1 (stereo not drawn) [Example 1P, 5-(5-{6-[(4-ethylpyridin-2-yl)amino]-4-methylpyridin-2-yl}-1,3-thiazol-2-yl)-5-hydroxy-5,6,7,8-tetrahydronaphthalene-2-carboxylic acid] |
| < 0.5 | Cc1cc(Nc2cc(OC(C)C)ccn2)nc(-c2cnc(C3(O)CCCc4cc(C(=O)O)ccc43)s2)c1 (stereo not drawn) [Example 1R, 5-hydroxy-5-[5-(4-methyl-6-{[4-(propan-2-yloxy)pyridin-2-yl]amino}pyridin-2-yl)-1,3-thiazol-2-yl]-5,6,7,8-tetrahydronaphthalene-2-carboxylic acid] |
| < 0.5 | Cc1cc(Nc2cc(-c3nnc(C)o3)ccn2)nc(-c2cnc(C3(O)CCCc4cc(C(=O)O)ccc43)s2)c1 (stereo not drawn) [Example 1S, 5-hydroxy-5-[5-(4-methyl-6-{[4-(5-methyl-1,3,4-oxadiazol-2-yl)pyridin-2-yl]amino}pyridin-2-yl)-1,3-thiazol-2-yl]-5,6,7,8-tetrahydronaphthalene-2-carboxylic acid] |
| < 0.5 | Cc1cc(Nc2cc(OC3CCOC3)ccn2)nc(-c2cnc(C3(O)CCCc4cc(C(=O)O)ccc43)s2)c1 (stereo not drawn) [Example 1T, 5-hydroxy-5-[5-(4-methyl-6-{[4-(tetrahydrofuran-3-yloxy)pyridin-2-yl]amino}pyridin-2-yl)-1,3-thiazol-2-yl]-5,6,7,8-tetrahydronaphthalene-2-carboxylic acid] |
| < 0.5 | Cc1cc(Nc2cc(C3CC3)ccn2)nc(-c2cnc(C3(O)CCCc4cc(C(=O)O)ccc43)s2)c1 (stereo not drawn) [Example 1U, 5-(5-{6-[(4-cyclopropylpyridin-2-yl)amino]-4-methylpyridin-2-yl}-1,3-thiazol-2-yl)-5-hydroxy-5,6,7,8-tetrahydronaphthalene-2-carboxylic acid] |
| < 0.5 | Cc1cc(Nc2cc(C(C)C)ccn2)nc(-c2cnc(C3(O)CCCc4cc(C(=O)O)ccc43)s2)c1 (stereo not drawn) [Example 1V, 5-hydroxy-5-[5-(4-methyl-6-{[4-(1-methylethyl)pyridin-2-yl]amino}pyridin-2-yl)-1,3-thiazol-2-yl]-5,6,7,8-tetrahydronaphthalene-2-carboxylic acid] |
| < 0.5 | Cc1cc(Nc2cc(C(F)(F)F)ccn2)nc(-c2cnc([C@@]3(O)CCCc4cc(C(=O)NS(=O)(=O)C5CC5)ccc43)s2)c1 [Example 22A, (R)-N-(cyclopropylsulfonyl)-5-hydroxy-5-[5-(4-methyl-6-{[4-(trifluoromethyl)pyridin-2-yl]amino}pyridin-2-yl)-1,3-thiazol-2-yl]-5,6,7,8-tetrahydronaphthalene-2-carboxamide] |
| < 0.5 | Cc1cc(Nc2cc(C(F)(F)F)ccn2)nc(-c2cnc([C@@]3(O)CCCc4cc(C(=O)Nc5nnn[nH]5)ccc43)s2)c1 [Example 22E, (R)-5-hydroxy-5-[5-(4-methyl-6-{[4-(trifluoromethyl)pyridin-2-yl]amino}pyridin-2-yl)-1,3-thiazol-2-yl]-N-1H-tetrazol-5-yl-5,6,7,8-tetrahydronaphthalene-2-carboxamide] |

| Structure (SMILES) | IC50 [nM] |
| --- | --- |
| Cc1cc(Nc2cc(OC(C)(C)C)ccn2)nc(-c2cnc([C@@]3(O)CCCc4cc(C(=O)O)ccc43)s2)c1 [Example 1, (R)-5-(5-{6-[(4-Tert-butoxypyridin-2-yl)amino]-4-methylpyridin-2-yl}-1,3-thiazol-2-yl)-5-hydroxy-5,6,7,8-tetrahydronaphthalene-2-carboxylic acid, ammonia salt] | < 0.5 |

System: PGD2
Assay: not given
Conditions: dosed intranasally, phase I/II study, allergic rhinitis; cited from earlier work

| Structure (SMILES) | clinical safety | decrease in PGD2 |
| --- | --- | --- |
| Oc1cccc(Nc2ncc(F)c(Nc3cccc(O)c3)n2)c1 [Example R112] | safe across a range of indicators | statistically significant decrease |

System: not given
Assay: not given
Conditions: phase II clinical trial, allergic rhinitis; cited from earlier work

| Structure (SMILES) | efficacy versus placebo |
| --- | --- |
| Oc1cccc(Nc2ncc(F)c(Nc3cccc(O)c3)n2)c1 [Example R112] | lack of efficacy |
